From ChEMBL document CHEMBL1134910 (Bioorg Med Chem Lett, 2002)
pKi: −log10 of the molar value.

Legend:
[1] = biological target: Adenosine receptor A2a (Sus scrofa)
Adenosine receptor A2a = Adenosine receptor A2a (Rattus norvegicus, UniProt P30543)
Description: Receptor binding affinity for the adenosine A2A receptor was determined using [3H]ZM-241385 as a radioligand in rat

Adenosine receptor A3 = biological target: T1, Adenosine receptor A3 (Homo sapiens, UniProt P0DMS8); test: Binding affinity for Adenosine A3A receptor
T1 sequence (P0DMS8 whole entry): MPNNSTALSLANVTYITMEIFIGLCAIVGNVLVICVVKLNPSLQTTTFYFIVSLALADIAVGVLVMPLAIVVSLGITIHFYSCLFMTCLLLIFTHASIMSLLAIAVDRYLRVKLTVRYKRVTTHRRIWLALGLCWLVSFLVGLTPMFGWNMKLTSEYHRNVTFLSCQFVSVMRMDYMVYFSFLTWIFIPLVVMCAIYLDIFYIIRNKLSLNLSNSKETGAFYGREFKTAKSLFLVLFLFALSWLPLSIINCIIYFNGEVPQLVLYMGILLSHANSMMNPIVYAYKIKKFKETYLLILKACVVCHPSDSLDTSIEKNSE

Adenosine receptor A1 = biological target: T2, Adenosine receptor A1 (Homo sapiens, UniProt P30542); test: Binding affinity for adenosine (ADO) A1 receptor in CHO cells; assay type: cell-based
T2 sequence (P30542 whole entry): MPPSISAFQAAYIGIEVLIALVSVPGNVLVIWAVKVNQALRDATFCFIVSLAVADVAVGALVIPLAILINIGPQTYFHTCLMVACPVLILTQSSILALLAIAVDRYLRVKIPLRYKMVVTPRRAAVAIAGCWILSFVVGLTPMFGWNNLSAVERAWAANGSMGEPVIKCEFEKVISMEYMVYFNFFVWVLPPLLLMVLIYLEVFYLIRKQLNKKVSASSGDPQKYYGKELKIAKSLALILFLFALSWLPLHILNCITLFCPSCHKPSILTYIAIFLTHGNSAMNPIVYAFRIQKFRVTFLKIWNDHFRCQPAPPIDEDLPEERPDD

Adenosine receptor A2a, sequence (P30543 whole entry): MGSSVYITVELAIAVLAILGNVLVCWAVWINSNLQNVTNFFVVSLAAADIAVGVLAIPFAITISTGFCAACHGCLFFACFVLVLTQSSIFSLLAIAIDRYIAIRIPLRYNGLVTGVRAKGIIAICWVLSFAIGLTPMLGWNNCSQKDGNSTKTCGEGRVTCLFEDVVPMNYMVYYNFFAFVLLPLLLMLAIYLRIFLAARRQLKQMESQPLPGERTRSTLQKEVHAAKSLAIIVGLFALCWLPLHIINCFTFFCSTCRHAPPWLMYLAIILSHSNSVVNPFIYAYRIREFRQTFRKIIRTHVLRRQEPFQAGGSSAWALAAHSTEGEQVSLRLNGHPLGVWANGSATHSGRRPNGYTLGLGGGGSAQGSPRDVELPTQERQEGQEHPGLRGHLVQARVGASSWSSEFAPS

| pKi [1] | pKi (Adenosine receptor A2a) | pKi (Adenosine receptor A3) | pKi (Adenosine receptor A1) | Structure (SMILES) |
| --- | --- | --- | --- | --- |
| < 4.00 | 4.68 |  |  | CN(C)C(=O)Cn1cc(-c2nc(N)c3ncn([C@@H]4O[C@H](CO)[C@@H](O)[C@H]4O)c3n2)cn1 |
| 5.18 | 5.58 |  |  | Nc1nc(-c2cnn(CCCC3CCCCC3)c2)nc2c1ncn2[C@@H]1O[C@H](CO)[C@@H](O)[C@H]1O |
| 5.89 | 7.22 |  |  | CCOC(=O)c1cnn(-c2nc(N)c3ncn([C@@H]4O[C@H](CO)[C@@H](O)[C@H]4O)c3n2)c1 |
| 5.87 | 6.46 |  |  | NC(=O)c1cnn(-c2nc(N)c3ncn([C@@H]4O[C@H](CO)[C@@H](O)[C@H]4O)c3n2)c1 |
| 5.23 | 5.65 |  |  | Nc1nc(-c2cnn(CCc3ccccc3)c2)nc2c1ncn2[C@@H]1O[C@H](CO)[C@@H](O)[C@H]1O |
| 5.67 | 5.59 | < 5.00 |  | CCCCCn1cc(-c2nc(N)c3ncn([C@@H]4O[C@H](CO)[C@@H](O)[C@H]4O)c3n2)cn1 |
|  | 7.18 |  |  | Nc1nc(N/N=C\C2CCCCC2)nc2c1ncn2[C@@H]1O[C@H](CO)[C@@H](O)[C@H]1O |
| < 4.00 | < 4.00 |  |  | CNC(=O)Cn1cc(-c2nc(N)c3ncn([C@@H]4O[C@H](CO)[C@@H](O)[C@H]4O)c3n2)cn1 |
| < 4.00 |  |  |  | Cc1cc(-c2ccccc2)nn1-c1nc(N)c2ncn([C@@H]3O[C@H](CO)[C@@H](O)[C@H]3O)c2n1 |
| < 4.00 | < 4.00 |  |  | Cn1cc(-c2nc(N)c3ncn([C@@H]4O[C@H](CO)[C@@H](O)[C@H]4O)c3n2)cn1 |
| 6.25 | 6.72 |  |  | COc1ccc(-c2cnn(-c3nc(N)c4ncn([C@@H]5O[C@H](CO)[C@@H](O)[C@H]5O)c4n3)c2)cc1 |
| 5.77 | 6.33 |  |  | C=CCCCn1cc(-c2nc(N)c3ncn([C@@H]4O[C@H](CO)[C@@H](O)[C@H]4O)c3n2)cn1 |
| < 4.00 | < 4.00 |  |  | Nc1nc(-c2cnn(CC(=O)O)c2)nc2c1ncn2[C@@H]1O[C@H](CO)[C@@H](O)[C@H]1O |
| 6.36 | 6.85 |  |  | CN(C)C(=O)c1cnn(-c2nc(N)c3ncn([C@@H]4O[C@H](CO)[C@@H](O)[C@H]4O)c3n2)c1 |
| < 4.00 |  |  |  | CCCCc1c(C)nn(-c2nc(N)c3ncn([C@@H]4O[C@H](CO)[C@@H](O)[C@H]4O)c3n2)c1C |
| 6.31 | 6.72 |  |  | Cc1ccc(-c2cnn(-c3nc(N)c4ncn([C@@H]5O[C@H](CO)[C@@H](O)[C@H]5O)c4n3)c2)cc1 |
| 6.92 | 7.30 |  |  | CCCNC(=O)c1cnn(-c2nc(N)c3ncn([C@@H]4O[C@H](CO)[C@@H](O)[C@H]4O)c3n2)c1 |
| 5.62 | 5.28 |  |  | CC(C)(C)c1ccc(Cn2cc(-c3nc(N)c4ncn([C@@H]5O[C@H](CO)[C@@H](O)[C@H]5O)c4n3)cn2)cc1 |
| < 4.00 | < 4.00 |  |  | Nc1nc(-c2cn[nH]c2)nc2c1ncn2[C@@H]1O[C@H](CO)[C@@H](O)[C@H]1O |
| < 4.00 | 5.21 |  |  | CCCCCCCCCCn1cc(-c2nc(N)c3ncn([C@@H]4O[C@H](CO)[C@@H](O)[C@H]4O)c3n2)cn1 |
| < 4.00 |  |  |  | CCCc1c(C)nn(-c2nc(N)c3ncn([C@@H]4O[C@H](CO)[C@@H](O)[C@H]4O)c3n2)c1C |
| 6.42 | 7.22 |  |  | CCNC(=O)c1cnn(-c2nc(N)c3ncn([C@@H]4O[C@H](CO)[C@@H](O)[C@H]4O)c3n2)c1 |
| < 4.00 | < 4.00 |  |  | CCNC(=O)Cn1cc(-c2nc(N)c3ncn([C@@H]4O[C@H](CO)[C@@H](O)[C@H]4O)c3n2)cn1 |
| 6.06 | 6.66 |  |  | Nc1nc(-c2cnn(CC3CCCCC3)c2)nc2c1ncn2[C@@H]1O[C@H](CO)[C@@H](O)[C@H]1O |
|  |  | < 5.00 | < 4.78 | CNC(=O)c1cnn(-c2nc(N)c3ncn([C@@H]4O[C@H](CO)[C@@H](O)[C@H]4O)c3n2)c1 [REGADENOSON ANHYDROUS] |

| Structure (SMILES) | pKi [1] | pKi (Adenosine receptor A2a) | pKi (Adenosine receptor A3) | pKi (Adenosine receptor A1) |
| --- | --- | --- | --- | --- |
| Nc1nc(-c2cnn(Cc3ccccc3)c2)nc2c1ncn2[C@@H]1O[C@H](CO)[C@@H](O)[C@H]1O | 5.80 | 5.79 |  |  |
